Measured values taken from the supplement of paper PMC11061612.

Legend:
Assay in all cases: Bliss excess, mean over the matrix (fraction); higher = more synergy
CAL-72 (Osteosarcoma) = system: CAL-72 (Osteosarcoma)
In short: (§1)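 Cell lines grown in DMEM/F12 or RPMI with 10% FBS were plated in 1536-well plates and held 24 hours at 37°C, 5% CO2 before 72 hours of exposure to two-drug dose matrices, with DMSO typically at 0.2%. CellTiter-Glo 2.0 luminescence gave viability, which was converted to inhibition. Vehicle wells were set to 0 and blank wells to 1. Combination Emax is the second-highest inhibition in the matrix, and Bliss excess is the observed combination effect minus the expected EA + EB − EA·EB, where EA and EB are the single-agent effects.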

[1] = system: CAL-33 (Oral Cavity Carcinoma)
In short: as §1

[2] = system: Detroit562 (Head and Neck Carcinoma)
In short: as §1

[3] = system: NCI-H1568 (Lung Adenocarcinoma)
In short: as §1

[4] = system: Hs-746T (Gastric Carcinoma)
In short: as §1

[5] = system: ALL-PO (B-Lymphoblastic Leukemia)
In short: as §1

EW-11 (Ewing's Sarcoma) = system: EW-11 (Ewing's Sarcoma)
In short: as §1

NCI-H2722 (Mesothelioma) = system: NCI-H2722 (Mesothelioma)
In short: as §1

[6] = system: ESS-1 (Other Solid Carcinomas)
In short: as §1

[7] = system: NCI-H524 (Small Cell Lung Carcinoma)
In short: as §1

KS-1 (Glioblastoma) = system: KS-1 (Glioblastoma)
In short: as §1

[8] = system: TGBC1TKB (Biliary Tract Carcinoma)
In short: as §1

A673 (Ewing's Sarcoma) = system: A673 (Ewing's Sarcoma)
In short: as §1

[9] = system: LCLC-97TM1 (Non-Small Cell Lung Carcinoma)
In short: as §1

BPH-1 (Non-Cancerous) = system: BPH-1 (Non-Cancerous)
In short: as §1

[10] = system: YAPC (Pancreatic Carcinoma)
In short: as §1

[11] = system: OE21 (Esophageal Squamous Cell Carcinoma)
In short: as §1

BE2-M17 (Neuroblastoma) = system: BE2-M17 (Neuroblastoma)
In short: as §1

[12] = system: HuH-7 (Hepatocellular Carcinoma)
In short: as §1

[13] = system: WSU-NHL (B-Cell Non-Hodgkin's Lymphoma)
In short: as §1

Row | SMILES | Bliss excess (CAL-72 (Osteosarcoma)) | Bliss excess [1] | Bliss excess [2] | Bliss excess [3] | Bliss excess [4] | Bliss excess [5] | Bliss excess (EW-11 (Ewing's Sarcoma)) | Bliss excess (NCI-H2722 (Mesothelioma)) | Bliss excess [6] | Bliss excess [7] | Bliss excess (KS-1 (Glioblastoma)) | Bliss excess [8] | Bliss excess (A673 (Ewing's Sarcoma)) | Bliss excess [9] | Bliss excess (BPH-1 (Non-Cancerous)) | Bliss excess [10] | Bliss excess [11] | Bliss excess (BE2-M17 (Neuroblastoma)) | Bliss excess [12] | Bliss excess [13]
1 | Cc1c2c(nn1C)CSCc1cc(n(C)n1)CSc1cc(c3ccccc3c1)OCCCc1c(C(=O)O)n(C)c3c-2c(Cl)ccc13 [AZD5991] + Cc1cc2ncnn2cc1Nc1ncc2c(n1)n(C1CCOCC1)c(=O)n2C [AZD7648] (first compound max 1 µM, 7x7, partner max 10 µM) | -0.0475 | -0.0341 | -0.0172 | -0.0717 | -0.0784 | -0.0304 | -0.0197 | -0.0785 | -0.0292 | -0.016 | -0.0797 | -0.0115 | -0.0515 | -0.0015 | -0.0632 | 0.0003 | -0.0387 | -0.0159 | -0.0408 | -0.0594
2 | CS(=O)(=O)CCNCc1ccc(-c2ccc3ncnc(Nc4ccc(OCc5cccc(F)c5)c(Cl)c4)c3c2)o1 [Lapatinib] + C[C@@H](Oc1cc(-c2cnn(C3CCNCC3)c2)cnc1N)c1c(Cl)ccc(F)c1Cl [Crizotinib] (first compound max 10 µM, 7x7, partner max 10 µM) | -0.0926 | -0.0247 | 0.0107 | -0.0174 | 0.0079 | 0.035 | -0.0233 | -0.0713 | -0.0637 | -0.037 | -0.0458 | -0.0061 | -0.0546 | -0.0093 | -0.0078 | -0.0168 | 0.0006 | -0.0652 | 0.0309 | -0.0515
3 | CC1(C)CCC(CN2CCN(c3ccc(C(=O)NS(=O)(=O)c4ccc(NCC5CCOCC5)c([N+](=O)[O-])c4)c(Oc4cnc5[nH]ccc5c4)c3)CC2)=C(c2ccc(Cl)cc2)C1 [Venetoclax] + Cc1cc2ncnn2cc1Nc1ncc2c(n1)n(C1CCOCC1)c(=O)n2C [AZD7648] (first compound max 1 µM, 7x7, partner max 10 µM) | -0.0713 | 0.0043 | -0.0205 | -0.0256 | -0.0131 | 0.11 | 0.0082 | -0.042 | -0.0501 | -0.005 | -0.0296 | -0.043 | -0.0124 | -0.0144 | -0.0517 | -0.0143 | -0.0076 | 0.0002 | -0.022 | -0.082
4 | CN(C)CCCOc1ccc(-c2ccc3ncc4c(c3c2)n(C2CCOCC2)c(=O)n4C)cn1 [AZD0156] + CCN(CCO)CCCOc1ccc2c(Nc3cc(CC(=O)Nc4cccc(F)c4)[nH]n3)ncnc2c1 [AZD2811] (first compound max 1 µM, 7x7, partner max 1 µM) | -0.0213 | -0.0139 | 0.0235 | -0.0376 | -0.0747 | -0.024 | -0.084 | -0.0226 | 0.0179 | -0.0083 | 0.0228 | -0.043 | 0.0262 | 0.0765 | 0.0625 | -0.0536 | -0.0048 | 0.0535 | -0.0381 | -0.005
5 | Cc1c2c(nn1C)CSCc1cc(n(C)n1)CSc1cc(c3ccccc3c1)OCCCc1c(C(=O)O)n(C)c3c-2c(Cl)ccc13 [AZD5991] + C=CCn1c(=O)c2cnc(Nc3ccc(N4CCN(C)CC4)cc3)nc2n1-c1cccc(C(C)(C)O)n1 [AZD1775] (first compound max 1 µM, partner max 1 µM) | 0.0098 | -0.0275 | 0.0261 | 0.0349 | -0.0096 | 0.0023 | -0.0011 | -0.016 | -0.0715 | -0.0274 | -0.0553 | 0.0066 | 0.0002 | -0.0141 | -0.0071 | 0.0258 | -0.0135 | -0.03 | -0.0259 | -0.0459
6 | NC1(C(=O)N[C@@H](CCO)c2ccc(Cl)cc2)CCN(c2ncnc3[nH]ccc23)CC1 [Capivasertib] + Cn1cnc2c(F)c(Nc3ccc(Br)cc3Cl)c(C(=O)NOCCO)cc21 [Selumetinib] (first compound max 10 µM, 7x7, partner max 10 µM) | 0.0427 | 0.0926 | 0.0993 | -0.055 | 0.0736 | 0.117 | 0.021 | 0.0009 | -0.0183 | 0.0158 | 0.0426 | 0.0729 | 0.0877 | 0.0752 | -0.0162 | 0.03 | 0.0761 | 0.0158 | -0.0428 | 0.0544
7 | Cc1c2c(nn1C)CSCc1cc(n(C)n1)CSc1cc(c3ccccc3c1)OCCCc1c(C(=O)O)n(C)c3c-2c(Cl)ccc13 [AZD5991] + C1CN(CCC1(C(=O)N[C@@H](CCO)C2=CC=C(C=C2)Cl)N)C3=NC=NC4=C3C=CN4 [Capivasertib] (first compound max 1 µM, 7x7, partner max 3 µM) | 0.005 | 0.0067 | -0.0269 | -0.012 | 0.0327 | 0.0327 | -0.02 | -0.0147 | -0.0113 | 0.014 | -0.0181 | -0.0159 | 0.0001 | -0.0061 | 0.0123 | -0.0095 | 0.0577 | -0.0068 | -0.0116 | -0.0777
8 | COc1nnc2ccc(N3CCC(c4ccc(OCCN5CCN(C)C(=O)[C@H]5C)cc4)CC3)nn12 [AZD5153] + Cn1cnc2c(F)c(Nc3ccc(Br)cc3Cl)c(C(=O)NOCCO)cc21 [Selumetinib] (first compound max 1 µM, 7x7, partner max 10 µM) | -0.0414 | 0.0584 | -0.0316 | -0.0099 | -0.0227 | -0.0054 | -0.0633 | -0.0597 | -0.0065 | -0.0216 | 0.0982 | 0.0517 | 0.111 | -0.0694 | -0.0385 | 0.0121 | 0.0032 | 0.0139 | 0.006 | 0.0023
9 | CN(C)CCCOc1ccc(-c2ccc3ncc4c(c3c2)n(C2CCOCC2)c(=O)n4C)cn1 [AZD0156] + C=CCn1c(=O)c2cnc(Nc3ccc(N4CCN(C)CC4)cc3)nc2n1-c1cccc(C(C)(C)O)n1 [AZD1775] (first compound max 1 µM, partner max 1 µM) | -0.0492 | -0.0497 | -0.0122 | -0.0493 | -0.0305 | 0.0128 | -0.0426 | -0.0363 | -0.124 | -0.0204 | -0.0268 | -0.0734 | 0.0342 | -0.0179 | 0.0475 | -0.0575 | 0.0083 | -0.0429 | -0.0497 | -0.002
10 | COc1nnc2ccc(N3CCC(c4ccc(OCCN5CCN(C)C(=O)[C@H]5C)cc4)CC3)nn12 [AZD5153] + CCN(CCO)CCCOc1ccc2c(Nc3cc(CC(=O)Nc4cccc(F)c4)[nH]n3)ncnc2c1 [AZD2811] (first compound max 1 µM, 7x7, partner max 1 µM) | -0.012 | -0.128 | -0.0804 | -0.064 | -0.058 | -0.0134 | -0.06 | -0.0263 | -0.0091 | -0.0138 | -0.0317 | 0.0017 | -0.0389 | -0.0325 | -0.0252 | -0.0203 | -0.0315 | 0.102 | -0.051 | -0.0807
11 | Cn1cnc2c(F)c(Nc3ccc(Br)cc3Cl)c(C(=O)NOCCO)cc21 [Selumetinib] + CCN(CCO)CCCOc1ccc2c(Nc3cc(CC(=O)Nc4cccc(F)c4)[nH]n3)ncnc2c1 [AZD2811] (first compound max 10 µM, 7x7, partner max 1 µM) | -0.0369 | -0.0215 | 0.0685 | -0.0612 | -0.0051 | -0.0029 | -0.0705 | -0.0834 | -0.0617 | -0.0101 | -0.0324 | 0 | -0.0233 | 0.0594 | 0.0204 | -0.0654 | 0.0238 | -0.0073 | -0.0164 | -0.0209
12 | COc1cccc(OCCCN)c1-c1cc(Nc2cnc(C#N)cn2)n[nH]1 [Prexasertib] + Cc1cc2ncnn2cc1Nc1ncc2c(n1)n(C1CCOCC1)c(=O)n2C [AZD7648] (first compound max 1 µM, 7x7, partner max 10 µM) | -0.112 | 0.0099 | -0.0342 | -0.0303 | -0.0512 | 0.0031 | -0.0303 | -0.012 | -0.0296 | -0.0204 | 0.0198 | -0.0747 | -0.0112 | -0.0411 | 0.0161 | -0.0172 | -0.0116 | 0.0047 | -0.0199 | -0.0355
13 | CN(C)CCCOc1ccc(-c2ccc3ncc4c(c3c2)n(C2CCOCC2)c(=O)n4C)cn1 [AZD0156] + C[C@@H]1COCCN1C2=NC(=NC(=C2)C3(CC3)[S@](=N)(=O)C)C4=C5C=CNC5=NC=C4 [AZD6738] (first compound max 1 µM, 7x7, partner max 10 µM) | 0.111 | -0.0178 | 0.0477 | -0.0424 | -0.0211 | 0.0402 | -0.112 | -0.0384 | -0.0177 | 0.0229 | -0.0267 | -0.0227 | 0.0153 | -0.0039 | -0.0092 | -0.0354 | 0.0015 | 0.0914 | 0.0196 | -0.0252
